What all share (assay type): biochemical
The target in assay [1] is T1, EGF-R wt (Homo sapiens, UniProt P00533).
T1 construct: purchased ProQinase GmbH
In words: EGFR-wt protein kinase assay (33PanQinase), single concentration. As to conditions: 0.5 μM (5 × 10^−7 M), singlicate, % of control activity; read-out: Residual activity under 0.5 μM drug concentration (%) EGF-R wt. How it is done: (§1) The inhibitory profile of 16 compounds was determined using two protein kinases. The compounds were tested at a concentration of 5 × 1 0^−7 M, in singlicate. The compounds were solved and diluted to 5 × 10^−5 M stock solutions in 100% DMSO according to the customer-filled CSF. 10 μL of each of the stock solutions were transferred into […] of a 96-well, Column 1 and 2 of the plate were filled with 10 μL100% DMSO. The plate is in the following referred to as “copy plate”. In the process, 90 μL H2O were added to each well of the copy plate. To minimize potential compound precipitation, the H2O was added to each well only a few minutes before the transfer of the compound solutions into the assay plates. The plate was shaken thoroughly, resulting in a “compound dilution plate” with a compound concentration of 5 × 10^−6 M/10% DMSO. This plate was used for the transfer of 5 μL compound solution into the assay plates. The final volume of the assay was 50 μL. All compounds were tested at 5 × 1 0^−7 M in singlicate. The final DMSO concentration in the reaction cocktails was 1% in all cases. The compound dilution plate was disposed.
(§2) A radiometric protein kinase assay (33PanQinase® Activity Assay) was used for measuring the kinase activity of the two protein kinases. All kinase assays were performed in 96-well FlashPlatesTM from PerkinElmer (Boston, MA, USA) in a 50 μL reaction volume. The reaction cocktail was pipetted in 4 steps in the following order: 20 μL of assay buffer, 5 μL of ATP solution (in H2O), 5 μL of test compound (in 10% DMSO), 20 μL enzyme/subtrate mix. The assay for both protein kinases contained 70 mM HEPES-NaOH pH 7.5, 3 mM MgCl2, 3 mM MnCl2, 3 μM Na-orthovanadate, 1.2 mM DTT, ATP. The assay for ERBB2 additionally contained 50 μg/mLPEG20000. The reaction cocktails were incubated at 30 °C for 60 min. The reaction was stopped with 50 μL of 2% (v/v) H3PO4, plates were aspirated and washed two times with 200 μL 0.9% (w/v) NaCl. Incorporation of 33Pi was determined with a microplate scintillation counter (Microbeta, Wallac). All assays were performed with a BeckmanCoulter/SAGIAN™Core System. The median value of the counts in column 1 (n = 8) of each assay plate was defined as “low control”. This value reflects unspecific binding of radioactivity to the plate in the absence of a protein kinase but in the presence of the substrate. The median value of the counts in column 2 of each assay plate (n = 8) was taken as the “high control”. As part of the data evaluation the low control value from a particular plate was subtracted from the high control value as well as from all 80 “compound values” of the corresponding plate. The residual activity (in %) for each well of a particular plate was calculated by using the following formula: Res. Activity (%) = 100 × [(cpm of compound – low control)/(high control − low control)]

For assay [2], the target named is T2, HER2 (Homo sapiens, UniProt P04626).
T2 construct: purchased ProQinase GmbH
In words: HER2 protein kinase assay (33PanQinase), single concentration. The note with it: 0.5 μM (5 × 10^−7 M), singlicate, % of control activity; read-out: Residual activity under 0.5 μM drug concentration (%) HER2. As to the method:
as §1, §2

A further assay has as its target EGF-R G719S (Homo sapiens, UniProt P00533, G719S). In words: Radiometric protein kinase IC50 assay (33PanQinase). As to the method:
(§3) The compounds were serially diluted in semi-log steps with 100% DMSO in a 96 well microtiter plate. The concentration range of this serial dilution was 1 × 10^−3 M to 3 × 10^−8 M. Directly before use the test compounds were further diluted 1:10 with water, resulting in a concentration range from 1 × 10^−4 M to 3 × 1 0^−9 M in 10% DMSO. For the assays, 5 μL from each concentration were transferred into the assay. The final volume of the assay was 50 μL. The compounds were tested at 10 final assay concentrations in the range from 1 × 10^−5 M to 3 × 10^−10 M. The final DMSO concentration in the reaction cocktails was 1% in all cases.
(§4) A radiometric protein kinase assay (33PanQinase® Activity Assay) was used for measuring the kinase activity of the 9 protein kinases. All kinase assays were performed in 96-well FlashPlatesTM from Perkin Elmer (Boston, MA, USA) in a 50 μL reaction volume. The reaction cocktail was pipetted in 4 steps in the following order: 10 μL of non-radioactive ATP solution (in H2O), 25 μL of assay buffer/[γ-33P]-ATP mixture, 5 μL of test sample in 10% DMSO, 10 μL of enzyme/substrate mixture. The assay for all protein kinases contained 70 mM HEPES-NaOH pH 7.5, 3 mM MgCl2, 3 mM MnCl2, 3 μM Na-orthovanadate, 1.2 mM DTT, ATP, [γ-33P]-ATP, protein kinase, and substrate.The reaction cocktails were incubated at 30 °C for 60 min. The reaction was stopped with 50 μL of 2% (v/v) H3PO4, plates were aspirated and washed two times with 200 μL 0.9% (w/v) NaCl. Incorporation of 33Pi (counting of “cpm”) was determined with a microplate scintillation counter (Microbeta, Wallac). All assays were performed with a BeckmanCoulter Biomek 2000/SL robotic system.
(§5) For each kinase, the median value of the cpm of three wells with complete reaction cocktails, but without kinase, was defined as “low control” (n = 3). This value reflects unspecific binding of radioactivity to the plate in the absence of protein kinase but in the presence of the substrate. Additionally, for each kinase the median value of the cpm of three other wells with the complete reaction cocktail, but without any compound, was taken as the “high control”, i.e. full activity in the absence of any inhibitor (n = 3). The difference between high and low control was taken as 100% activity for each kinase. As part of the data evaluation the low control value of each kinase was subtracted from the high control value as well as from their corresponding “compound values”. The residual activity (in %) for each compound well was calculated by using the following formula: Res. Activity (%) = 100 × [(cpm of compound – low control)/(high control – low control)]
(§6) Based on each 10 corresponding residual activities, IC50 values were calculated using Prism 5.04 for Windows. The mathematical model used was “Sigmoidal response (variable slope)” with parameters “top” fixed at 100% and “bottom” at 0%. The fitting method used was a least-squares fit.

A further assay concerns the target EGF-R L858R (Homo sapiens, UniProt P00533, L858R). The assay is described as above. As to the method:
as §3, §4, §5, §6

A further assay concerns the target EGF-R L861Q (Homo sapiens, UniProt P00533, L861Q). Described as above. How it is done:
as §3, §4, §5, §6

A further assay addresses EGF-R T790M (Homo sapiens, UniProt P00533, T790M). The assay is described as above. As to the method: as §3, §4, §5, §6
In the next assay the target is EGF-R T790M/L858R (Homo sapiens, UniProt P00533, L858R/T790M). The assay is described as above. As to conditions: for inhibitory activity on EGFR mutant containing both T790M and L858R, times stronger than neratinib: ratio of IC50 values to neratinib. How it is done: as §3, §4, §5, §6
The target of a further assay is EGF-R d747-749/A750P (Homo sapiens, UniProt P00533, A750P/DEL747-749). The assay is described as above. As to the method: as §3, §4, §5, §6
A further assay has as its target EGF-R d752-759 (Homo sapiens, UniProt P00533, DEL752-759). The description is as above. As to the method:
as §3, §4, §5, §6

For assay [3], the target named is T1, EGF-R wt. Described as above. The note with it: for biochemical activity on EGFR wt compared with neratinib: not more than that of neratinib. How it is done:
as §3, §4, §5, §6

In assay [4] the target is T2, HER2. The description is as above. As to the method:
as §3, §4, §5, §6

T1 sequence (P00533 25-1210): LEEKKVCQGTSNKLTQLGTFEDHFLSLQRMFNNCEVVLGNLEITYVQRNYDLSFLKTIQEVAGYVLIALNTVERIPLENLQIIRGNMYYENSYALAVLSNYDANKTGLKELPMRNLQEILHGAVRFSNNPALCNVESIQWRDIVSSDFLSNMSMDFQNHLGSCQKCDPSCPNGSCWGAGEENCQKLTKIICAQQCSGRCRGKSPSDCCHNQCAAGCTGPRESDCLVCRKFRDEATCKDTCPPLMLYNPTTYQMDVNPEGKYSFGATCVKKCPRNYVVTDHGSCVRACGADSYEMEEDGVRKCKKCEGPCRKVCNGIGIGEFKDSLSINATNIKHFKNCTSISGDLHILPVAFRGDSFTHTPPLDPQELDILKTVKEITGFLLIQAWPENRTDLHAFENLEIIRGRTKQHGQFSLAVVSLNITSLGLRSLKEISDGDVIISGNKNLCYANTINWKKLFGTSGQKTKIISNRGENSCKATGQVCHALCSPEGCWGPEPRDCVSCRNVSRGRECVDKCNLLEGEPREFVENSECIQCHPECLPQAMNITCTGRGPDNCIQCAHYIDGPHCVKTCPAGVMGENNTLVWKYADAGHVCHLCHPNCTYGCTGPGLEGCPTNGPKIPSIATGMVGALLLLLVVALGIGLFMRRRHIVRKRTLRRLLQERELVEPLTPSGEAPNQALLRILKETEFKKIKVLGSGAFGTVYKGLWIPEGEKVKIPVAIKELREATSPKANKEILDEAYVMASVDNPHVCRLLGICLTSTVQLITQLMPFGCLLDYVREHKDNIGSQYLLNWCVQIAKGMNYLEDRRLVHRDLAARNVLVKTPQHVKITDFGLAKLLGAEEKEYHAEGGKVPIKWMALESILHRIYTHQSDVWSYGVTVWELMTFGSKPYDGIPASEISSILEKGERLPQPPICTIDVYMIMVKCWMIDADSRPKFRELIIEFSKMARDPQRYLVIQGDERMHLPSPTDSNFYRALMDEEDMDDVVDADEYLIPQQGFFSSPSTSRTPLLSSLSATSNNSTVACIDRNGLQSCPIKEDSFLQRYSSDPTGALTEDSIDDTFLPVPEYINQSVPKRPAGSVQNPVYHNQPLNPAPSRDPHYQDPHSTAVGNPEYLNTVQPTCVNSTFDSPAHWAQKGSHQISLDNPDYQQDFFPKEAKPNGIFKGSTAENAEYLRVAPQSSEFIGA
EGF-R T790M/L858R, sequence (P00533 25-1210 T790M/L858R): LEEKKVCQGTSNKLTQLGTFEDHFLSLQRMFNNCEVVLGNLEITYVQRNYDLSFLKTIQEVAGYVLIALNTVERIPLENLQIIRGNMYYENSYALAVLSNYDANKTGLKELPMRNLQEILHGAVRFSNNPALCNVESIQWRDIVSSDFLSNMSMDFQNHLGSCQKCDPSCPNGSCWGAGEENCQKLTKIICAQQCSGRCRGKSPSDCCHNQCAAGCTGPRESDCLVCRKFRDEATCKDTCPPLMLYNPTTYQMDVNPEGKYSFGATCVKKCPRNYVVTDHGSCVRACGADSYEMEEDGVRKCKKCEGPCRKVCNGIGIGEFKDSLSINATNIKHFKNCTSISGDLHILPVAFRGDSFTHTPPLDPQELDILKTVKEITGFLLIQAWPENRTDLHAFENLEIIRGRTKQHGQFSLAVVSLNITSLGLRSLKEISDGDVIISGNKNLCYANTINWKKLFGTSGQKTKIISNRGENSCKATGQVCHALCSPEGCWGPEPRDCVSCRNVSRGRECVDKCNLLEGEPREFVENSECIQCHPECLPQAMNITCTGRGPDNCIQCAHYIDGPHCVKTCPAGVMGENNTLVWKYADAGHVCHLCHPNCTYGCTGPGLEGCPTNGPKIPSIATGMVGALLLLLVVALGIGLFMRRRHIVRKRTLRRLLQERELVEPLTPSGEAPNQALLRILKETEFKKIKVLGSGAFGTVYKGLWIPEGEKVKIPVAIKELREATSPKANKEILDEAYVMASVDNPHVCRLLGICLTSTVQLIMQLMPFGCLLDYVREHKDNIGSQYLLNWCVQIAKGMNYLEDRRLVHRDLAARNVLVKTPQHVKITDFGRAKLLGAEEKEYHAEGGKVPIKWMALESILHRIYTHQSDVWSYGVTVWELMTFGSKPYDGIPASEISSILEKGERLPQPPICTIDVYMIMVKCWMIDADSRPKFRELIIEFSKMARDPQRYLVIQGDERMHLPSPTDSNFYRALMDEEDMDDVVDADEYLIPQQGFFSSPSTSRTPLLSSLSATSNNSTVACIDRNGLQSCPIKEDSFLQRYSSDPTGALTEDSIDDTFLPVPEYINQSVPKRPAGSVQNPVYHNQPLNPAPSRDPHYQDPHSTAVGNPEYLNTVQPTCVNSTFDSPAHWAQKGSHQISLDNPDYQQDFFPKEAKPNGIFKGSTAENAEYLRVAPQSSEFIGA
T2 sequence (P04626 23-1255): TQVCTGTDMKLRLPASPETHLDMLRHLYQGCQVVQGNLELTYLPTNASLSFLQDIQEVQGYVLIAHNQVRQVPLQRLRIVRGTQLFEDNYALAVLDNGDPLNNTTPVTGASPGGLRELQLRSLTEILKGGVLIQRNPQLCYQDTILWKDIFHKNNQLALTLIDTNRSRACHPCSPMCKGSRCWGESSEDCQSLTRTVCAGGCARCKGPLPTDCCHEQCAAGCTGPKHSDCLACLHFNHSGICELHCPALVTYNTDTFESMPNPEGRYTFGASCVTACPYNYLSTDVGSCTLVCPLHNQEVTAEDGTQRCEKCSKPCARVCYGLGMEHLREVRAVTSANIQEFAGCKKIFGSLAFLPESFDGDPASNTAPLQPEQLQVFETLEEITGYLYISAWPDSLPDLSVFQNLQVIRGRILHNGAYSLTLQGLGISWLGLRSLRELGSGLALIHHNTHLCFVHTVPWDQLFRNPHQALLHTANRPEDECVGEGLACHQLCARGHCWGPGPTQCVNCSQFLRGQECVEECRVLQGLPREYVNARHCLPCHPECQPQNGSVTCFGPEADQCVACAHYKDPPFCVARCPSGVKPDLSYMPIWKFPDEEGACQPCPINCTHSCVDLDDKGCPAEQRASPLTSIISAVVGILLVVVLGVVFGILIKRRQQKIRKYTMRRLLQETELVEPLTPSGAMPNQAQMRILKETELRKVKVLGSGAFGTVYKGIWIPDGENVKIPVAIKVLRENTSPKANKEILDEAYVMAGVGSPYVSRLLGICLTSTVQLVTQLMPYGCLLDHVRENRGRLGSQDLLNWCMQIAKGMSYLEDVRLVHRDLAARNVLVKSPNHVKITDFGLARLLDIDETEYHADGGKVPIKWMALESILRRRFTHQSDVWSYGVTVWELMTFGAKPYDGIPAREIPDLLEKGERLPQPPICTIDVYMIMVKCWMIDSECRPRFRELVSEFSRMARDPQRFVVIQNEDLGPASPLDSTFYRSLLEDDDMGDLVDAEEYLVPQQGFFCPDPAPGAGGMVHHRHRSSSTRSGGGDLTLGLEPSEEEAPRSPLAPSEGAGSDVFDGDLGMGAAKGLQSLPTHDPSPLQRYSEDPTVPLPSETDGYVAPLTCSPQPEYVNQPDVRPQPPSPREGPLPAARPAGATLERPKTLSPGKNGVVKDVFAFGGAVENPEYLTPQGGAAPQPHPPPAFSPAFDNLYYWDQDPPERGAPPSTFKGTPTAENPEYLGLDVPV
EGF-R G719S, sequence (P00533 25-1210 G719S): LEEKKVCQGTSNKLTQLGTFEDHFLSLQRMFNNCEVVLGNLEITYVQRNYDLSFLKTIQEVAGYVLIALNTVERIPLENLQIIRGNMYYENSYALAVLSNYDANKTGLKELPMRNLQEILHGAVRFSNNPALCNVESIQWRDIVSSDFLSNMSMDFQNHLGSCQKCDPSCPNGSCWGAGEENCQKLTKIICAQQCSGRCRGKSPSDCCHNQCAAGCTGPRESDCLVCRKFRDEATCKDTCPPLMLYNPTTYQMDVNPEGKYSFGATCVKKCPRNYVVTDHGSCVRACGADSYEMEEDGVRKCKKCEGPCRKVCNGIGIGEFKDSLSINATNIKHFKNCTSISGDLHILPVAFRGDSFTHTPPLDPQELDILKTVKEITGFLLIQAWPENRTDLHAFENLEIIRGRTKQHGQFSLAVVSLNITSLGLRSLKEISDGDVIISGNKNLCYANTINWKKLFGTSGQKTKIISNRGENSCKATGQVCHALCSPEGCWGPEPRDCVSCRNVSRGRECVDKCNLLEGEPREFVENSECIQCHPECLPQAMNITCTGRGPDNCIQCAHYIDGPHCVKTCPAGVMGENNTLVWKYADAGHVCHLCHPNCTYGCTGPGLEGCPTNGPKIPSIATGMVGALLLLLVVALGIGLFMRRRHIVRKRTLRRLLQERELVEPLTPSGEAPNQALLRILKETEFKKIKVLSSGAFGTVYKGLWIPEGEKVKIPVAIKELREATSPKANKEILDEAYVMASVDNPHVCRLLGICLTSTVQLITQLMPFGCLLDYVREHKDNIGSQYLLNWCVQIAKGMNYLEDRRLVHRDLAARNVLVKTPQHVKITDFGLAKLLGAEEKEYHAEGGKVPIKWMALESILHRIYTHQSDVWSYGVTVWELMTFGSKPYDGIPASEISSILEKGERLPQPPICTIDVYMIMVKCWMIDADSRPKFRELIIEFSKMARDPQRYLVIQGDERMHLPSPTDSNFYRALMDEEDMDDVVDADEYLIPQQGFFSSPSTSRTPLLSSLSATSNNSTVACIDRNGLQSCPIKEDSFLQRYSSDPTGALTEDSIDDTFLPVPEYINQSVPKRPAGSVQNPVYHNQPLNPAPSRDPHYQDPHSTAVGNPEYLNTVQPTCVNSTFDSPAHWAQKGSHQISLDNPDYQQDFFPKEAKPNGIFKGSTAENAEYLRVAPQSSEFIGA

As for `C=CC(=O)N1CC2(CCN(C)CC2)c2cc(OC)c(Nc3ncc(C#N)c(Nc4ccc(OCc5ccccn5)cc4)n3)cc21` [Compound A1, 2-{[5-methoxy-1′-methyl-1-(prop-2-enoyl)-1,2-dihydrospiro[indole-3,4′ -piperidine]-6-yl]amino}-4-{[4-(pyridin-2-ylmethoxy)phenyl]amino}pyrimidine-5-carbonitrile], the remaining activity at 0.5 µM on EGF-R wt [1] is 7%; on HER2 [2], 9%. Moreover, the IC50 on EGF-R G719S was determined as 200 nM; against EGF-R L858R, 86 nM; against EGF-R L861Q it was 76 nM; against EGF-R T790M it was 89 nM; at EGF-R T790M/L858R, 90 nM; against EGF-R d747-749/A750P it was 53 nM. For the same compound, the IC50 on EGF-R d752-759 amounted to 210 nM; on EGF-R wt [3], 61 nM; against HER2 [4], 260 nM. Further, at EGF-R T790M/L858R, the “inhibitory activity on EGFR mutant containing both T790M and L858R, times stronger than neratinib” value is listed as 31 times. Further, the “biochemical activity on EGFR wt compared with neratinib” value on EGF-R wt [3] was “within five times”.
`C=CC(=O)N1CC2(CCN(C)CC2)c2cc(OC)c(Nc3ncc(C#N)c(Nc4ccc(OCc5ccccn5)c(Cl)c4)n3)cc21` [Compound A2, 4-{[3-chloro-4-(pyridin-2-ylmethoxy)phenyl]amino}-2-{[5-methoxy-1′-methyl-1-(prop-2-enoyl)-1,2-dihydrospiro[indole-3,4′-piperidine]-6-yl]amino}pyrimidine-5-carbonitrile]: the remaining activity at 0.5 µM on EGF-R wt [1] was 6%; on HER2 [2], 5%. The IC50 against EGF-R G719S came to 240 nM; against EGF-R L858R it was 81 nM; on EGF-R L861Q, 81 nM; at EGF-R T790M, 130 nM; at EGF-R T790M/L858R, 80 nM; at EGF-R d747-749/A750P it was 54 nM. Further, the IC50 turned out to be 200 nM against EGF-R d752-759, 59 nM at EGF-R wt [3] and 310 nM at HER2 [4]. Moreover, the “inhibitory activity on EGFR mutant containing both T790M and L858R, times stronger than neratinib” value on EGF-R T790M/L858R is on record as 31 times. Moreover, the “biochemical activity on EGFR wt compared with neratinib” value on EGF-R wt [3] is on record as “within five times”.

The values are drawn from PMC6691816, “Discovery of aminopyridine-containing spiro derivatives as EGFR mutations inhibitors” (Journal of Enzyme Inhibition and Medicinal Chemistry, 2019).
